Earlier results in publication PMC5579141.

Assay: not told

log partition benzene / water [log10] | log partition dibutyl ether / water [log10] | log partition dichloromethane / water [log10] | log partition heptane / water [log10] | log partition hexanol / water [log10] | log partition nitrobenzene / water [log10] | log partition nonanol / water [log10] | log partition octane / water [log10] | log partition tetrachloromethane / water [log10] | log partition toluene / water [log10] | log partition trichloromethane / water [log10] | SMILES | also measured
0.15 | 0.08 | 0.40 | −0.57 | 0.62 | 0.30 | 0.59 | −0.62 | 0.02 | 0.13 | 0.33 | CC(=O)CC(=O)C(F)(F)F | log partition dodecane / water: −0.76 log10; log partition ethylbenzene / water: −0.18 log10; log partition hexane / water: −0.51 log10; log partition pentanol / water: 0.52 log10
3.05 | 2.36 | 3.48 | 2.03 | 2.48 | 3.19 | 2.43 | 2.00 | 2.77 | 2.91 | 3.50 | CC(=O)CC(=O)c1ccccc1 | log partition 1,2-dichloroethane / water: 3.23 log10; log partition bromobenzene / water: 3.36 log10; log partition chlorobenzene / water: 3.13 log10; log partition cyclohexane / water: 2.11 log10; log partition decane / water: 2.00 log10; log partition decanol / water: 2.38 log10; log partition m-xylene / water: 2.81 log10; log partition nonane / water: 1.97 log10; log partition octanol / water: 2.52 log10
